Measured values reported in patent US20250099455A1, “TREATMENT FOR CONGESTIVE HEART FAILURE” (FibroGen, Inc., priority 2022, published 2025).
“Also recorded” adds a separate entry of the source.

Assays:
[1] = tested on: acute myocardial ischemia; experiment: Acute cardioprotection: infarct size post-acute myocardial ischemia; assay type: in vivo
[2] = tested on: coronary artery (isolated heart preparation); experiment: Coronary artery vasodilation in an isolated heart preparation
[3] = tested on: congestive heart failure subsequent to myocardial infarction; experiment: Rat CHF subsequent to myocardial infarction, daily dosing (Example 4); assay type: in vivo
Experimental: A similar experiment was carried out in which rats were dosed more frequently with a lower dose. Animals were dosed orally every day with vehicle, 2 mg/kg, 6 mg/kg or 20 mg/kg compound from day 2 to day 26 post MI. […] The effect of the compound of Formula I on cardiac function in congestive heart failure (CHF) was studied by inducing CHF subsequent to myocardial infarction (MI). Four groups of rats (n=12) were subjected to MI by 30 minute ligation of the left coronary artery followed by reperfusion. In a sham group, rats underwent a similar surgical procedure except that the left coronary artery was not occluded. Treatment with the compound of Formula I was initiated 2 days after reperfusion. In the MI groups, rats were dosed orally daily with vehicle, 2 mg/kg, 6 mg/kg or 20 mg/kg compound from day 2 to day 26 post MI. In the sham group, rats were dosed with vehicle on the same schedule. At 28 days post-MI, cardiac function, heart weight, and complete blood count (CBC) were measured. • Male Sprague Dawley rats • Ligation of left coronary artery for 30 minutes followed by reperfusion • Post-ligation recovery for 28 days • Cardiac function 28 days after ischemia-reperfusion using a Millar pressure-volume catheter inserted in the left ventricle via the carotid artery • Record pressure-volume loops over several cardiac cycles and derived cardiac function parameters

[4] = tested on: permanent myocardial ischemia induced HF; experiment: Permanent myocardial ischemia induced HF; assay type: in vivo, rat; conditions: 6, 20 mg/kg daily, 4 weeks; at both doses
[5] = tested on: myocardial ischemia-induced heart failure (HFrEF); experiment: Rat model of ischemic HFrEF, Formula I and empagliflozin alone and in combination; assay type: in vivo
Experimental: • Male Sprague Dawley rats • Ligation of left coronary artery for 30 minutes followed by reperfusion • Post-ligation recovery for 28 days • Cardiac function 28 days after ischemia-reperfusion using a Millar pressure-volume catheter inserted in the left ventricle via the carotid artery • Record pressure-volume loops over several cardiac cycles and derived cardiac function parameters A) Rat Model of Ischemic Heart Failure with Reduced Ejection Fraction (HFrEF)

PHD1 = PHD1 (Homo sapiens (Human), UniProt Q96KS0); experiment: HIF-PH assay (14CO2 capture), PHD1; assay type: biochemical
Description: The selectivity profile for the compound of Formula I can be determined using, for example, any assay familiar and commonly accessible to those skilled in the art, e.g., the following HIF-PH assay.
Ketoglutaric acid α-[1-^14C]-sodium salt, alpha-ketoglutaric acid sodium salt, and HPLC purified peptide may be obtained from commercial sources, e.g., Perkin-Elmer (Wellesley MA), Sigma-Aldrich, and SynPep Corp. (Dublin CA), respectively. Peptides for use in the assay may be fragments of HIFα as described above or as disclosed in International Publication WO 2005/118836, incorporated by reference herein. HIF-PH, e.g., PHD1 (EGLN2) or PHD2 (EGLN1), can be expressed in, e.g., insect Hi5 cells, and partially purified, e.g., through a SP ion exchange chromatography column. Enzyme activity is determined by capturing ^14CO2 using an assay described by Kivirikko and Myllyla (1982, Methods Enzymol. 82:245-304). Assay reactions contain 50 mM HEPES (pH 7.4), 100 μM α-ketoglutaric acid sodium salt, 0.30 μCi/mL ketoglutaric acid α-[1-^14C]-sodium salt, 40 μM FeSO4, 1 mM ascorbate, 1541.8 units/mL Catalase, with or without 50 µM peptide substrate and various concentrations of compound of the invention. Reactions are initiated by addition of HIF-PH enzyme. IC50 (compound concentration for 50% inhibition of enzyme activity) of the compounds for each enzyme can be determined.
The peptide-dependent percent turnover is calculated by subtracting percent turnover in the absence of peptide from percent turnover in the presence of substrate peptide. Percent inhibition and IC50 are calculated using peptide-dependent percent turnover at given inhibitor concentrations. Calculation of IC50 values for each inhibitor is conducted using GraFit software (Erithacus Software Ltd., Surrey UK). IC50 of test compound for PHD1 and for PHD2 and/or PHD3 can be readily determined using the above method, and used to assess the selectivity of the compound for inhibition of PHD1.

[6] = 2, 6 or 20 mg/kg oral daily day 2-26 post MI, 28 days post-MI
[7] = 2, 6 or 20 mg/kg oral daily day 2-26 post MI, 28 days post-MI, vs vehicle

Chain of PHD1 (Q96KS0 whole entry, species assumed): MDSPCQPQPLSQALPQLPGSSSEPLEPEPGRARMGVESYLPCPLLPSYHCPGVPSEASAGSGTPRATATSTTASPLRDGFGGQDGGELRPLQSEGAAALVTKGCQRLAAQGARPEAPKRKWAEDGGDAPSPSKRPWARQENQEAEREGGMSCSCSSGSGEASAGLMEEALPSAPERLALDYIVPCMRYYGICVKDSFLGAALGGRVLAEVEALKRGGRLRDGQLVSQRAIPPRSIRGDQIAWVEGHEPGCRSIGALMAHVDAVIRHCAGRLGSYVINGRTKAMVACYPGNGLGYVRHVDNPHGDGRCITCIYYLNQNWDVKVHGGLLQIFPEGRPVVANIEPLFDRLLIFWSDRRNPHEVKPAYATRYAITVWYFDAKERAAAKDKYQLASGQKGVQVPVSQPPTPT

Q: What does the source list for `CC(C)(CC(=O)O)NC(=O)c1nc(C#N)c2cc(Oc3ccccc3)ccc2c1O` [Formula I, 3-[(1-cyano-4-hydroxy-7-phenoxy-isoquinoline-3-carbonyl)-amino]-3-methyl-butyric acid]?
A: infarct size [1]: reduced; also recorded: dose-dependent reducing affect; coronary artery vasodilation (coronary perfusion pressure, coronary resistance) [2]: induced; collagen deposition ([3]; 2, 6, 20 mg/kg daily, 4 weeks): Significant reduction in cardiac; diastolic function ([3]; 2, 6, 20 mg/kg daily, 4 weeks): deposition, improvement in systolic; systolic function ([3]; 2, 6, 20 mg/kg daily, 4 weeks): deposition, improvement in systolic; circulating hemoglobin level [3, 6]: did not produce a concomitant significant increase; also recorded: without any concomitant rise; other CBC parameters [3, 6]: did not produce a concomitant significant increase in circulating hemoglobin level or have a significant effect; arterial elastance [3, 7]: significantly improved; cardiac hypertrophy [3, 7]: significantly improved; also recorded: significant improvement; also recorded: Significant reduction in cardiac; cardiac output [3, 7]: significantly improved; also recorded: significant improvement; dPdtmax [3, 7]: significantly improved; ejection fraction [3, 7]: significantly improved; also recorded: significant improvement; also recorded: fraction improved at all doses); end systolic volume [3, 7]: significantly improved; also recorded: significant improvement; end-diastolic pressure [3, 7]: significantly improved; relaxation time [3, 7]: significantly improved; also recorded: significant improvement; stroke volume [3, 7]: significantly improved; also recorded: significant improvement; stroke work [3, 7]: significantly improved; also recorded: significant improvement; effectiveness of a lower dose at more frequent intervals vs a higher dose at less frequent intervals ([3]; daily 2, 6, 20 mg/kg vs every other day dosing): equally effective; cardiac contractility ([3]; daily for 28 days): significant improvement; cardiac hypertrophy [4]: Non-significant reduction in cardiac; collagen deposition [4]: Non-significant reduction in cardiac; improvement in ejection fraction [5]: ~30%; improvement in end systolic volume [5]: ~30%; IC50 (PHD1; Table 1): 0.91 µM; IC50 (PHD1; additional experiment, Table 1A): 0.7 µM; PHD2/PHD1 (PHD1; ratio IC50 PHD2/IC50 PHD1, additional experiment, Table 1A): 24
